In US20240308968A1, “FUNGICIDAL SUBSTITUTED HETEROCYCLES” (FMC Corporation, priority 2021, published 2024):

How the values were obtained:
Assay type in all cases: in vivo
Zymoseptoria tritici = test: Test A: preventive spray on wheat seedlings, wheat leaf blotch disease rating; details: 100 = 100% disease control, 0 = no control; for pest or weed control at 250 ppm / pest or weed control at 50 ppm: Zymoseptoria tritici, 456 h
From the text: (§1) General protocol for preparing test suspensions for Tests A-F: the test compounds were first dissolved in acetone in an amount equal to 3% of the final volume and then suspended at the desired concentration (in ppm) in acetone and purified water (50/50 mix by volume) containing 50 to 250 ppm of the surfactant PEG400 (polyhydric alcohol esters). The resulting test suspensions were then used in Tests A-F.
The test solution was sprayed to the point of run-off on wheat seedlings. The following day the seedlings were inoculated with a spore suspension of Zymoseptoria tritici (the causal agent of wheat leaf blotch) and incubated in a saturated atmosphere at 24° C. for 48 h, and then moved to a growth chamber at 20° C. for 17 days, after which time disease ratings were made. […]

[1] = test system: Puccinia recondita f. sp. Tritici; test: Test B: preventive spray on wheat seedlings, wheat leaf rust disease rating; details: 100 = 100% disease control, 0 = no control; for pest or weed control at 250 ppm / pest or weed control at 50 ppm: Puccinia recondita, 192 h
From the text: as §1
The test solution was sprayed to the point of run-off on wheat seedlings. The following day the seedlings were inoculated with a spore suspension of Puccinia recondita f. sp. Tritici (the causal agent of wheat leaf rust) and incubated in a saturated atmosphere at 20° C. for 24 h, and then moved to a growth chamber at 20° C. for 7 days, after which time disease ratings were made.
(§2) The test suspension was sprayed to the point of run-off on tomato seedlings. The following day the seedlings were inoculated with a spore suspension of Alternaria solani (the causal agent of tomato early blight) and incubated in a saturated atmosphere at 27° C. for 48 h, and then moved to a growth chamber at 20° C. for 3 days, after which time visual disease ratings were made. A rating of 100 indicates 100% disease control and a rating of 0 indicates no disease control (relative to the controls). A dash (-) indicates the compound was not tested.

[2] = test system: Blumeria graminis f. sp. Tritici; test: Test C: preventive spray on wheat seedlings, wheat powdery mildew disease rating; details: 100 = 100% disease control, 0 = no control; for pest or weed control at 250 ppm / pest or weed control at 50 ppm: Blumeria graminis, 192 h
From the text: as §1
The test suspension was sprayed to the point of run-off on wheat seedlings. The following day the seedlings were inoculated with a spore dust of Blumeria graminis f. sp. Tritici, (also known as Erysiphe graminis f. sp. Tritici, the causal agent of wheat powdery mildew) and incubated in a growth chamber at 20° C. for 8 days, after which time visual disease ratings were made.
as §2

Phakopsora pachyrhizi = test: Test D: preventive spray on soybean seedlings, Asian soybean rust disease rating; details: 100 = 100% disease control, 0 = no control; for pest or weed control at 250 ppm / pest or weed control at 50 ppm: Phakopsora pachyrhizi, 216 h
From the text: as §1
The test solution was sprayed to the point of run-off on soybean seedlings. The following day the seedlings were inoculated with a spore suspension of Phakopsora pachyrhizi (the causal agent of Asian soybean rust) and incubated in a saturated atmosphere at 22° C. for 24 h and then moved to a growth chamber at 22° C. for 8 days, after which time visual disease ratings were made.
as §2

Botrytis cinerea = test: Test E: preventive spray on tomato seedlings, tomato Botrytis disease rating; details: 100 = 100% disease control, 0 = no control; for pest or weed control at 250 ppm / pest or weed control at 50 ppm: Botrytis cinerea, 120 h
From the text: as §1
The test suspension was sprayed to the point of run-off on tomato seedlings. The following day the seedlings were inoculated with a spore suspension of Botrytis cinerea (the causal agent of tomato Botrytis) and incubated in a saturated atmosphere at 20° C. for 48 h, and then moved to a growth chamber at 24° C. for 3 days, after which time visual disease ratings were made.
as §2

Alternaria solani = test: Test F: preventive spray on tomato seedlings, tomato early blight disease rating; details: 100 = 100% disease control, 0 = no control; for pest or weed control at 250 ppm / pest or weed control at 50 ppm: Alternaria solani, 120 h
From the text: as §1, §2

SMILES	Test A disease control rating (Zymoseptoria tritici; 50 ppm) [%]	Test B disease control rating ([1]; 50 ppm) [%]	Test C disease control rating ([2]; 50 ppm) [%]	Test D disease control rating (Phakopsora pachyrhizi; 50 ppm) [%]	Test E disease control rating (Botrytis cinerea; 50 ppm) [%]	Test F disease control rating (Alternaria solani; 50 ppm) [%]	pest or weed control at 50 ppm (Zymoseptoria tritici; 50 ppm) [%]	pest or weed control at 50 ppm ([1]; 50 ppm) [%]	pest or weed control at 50 ppm ([2]; 50 ppm) [%]	pest or weed control at 50 ppm (Phakopsora pachyrhizi; 50 ppm) [%]	pest or weed control at 50 ppm (Botrytis cinerea; 50 ppm) [%]	pest or weed control at 50 ppm (Alternaria solani; 50 ppm) [%]	also measured
COc1cc(OC)cc(-c2nc(C)nc(C)c2-c2ccc(F)cc2Cl)c1 [Compound 44, 5-(2-chloro-4-fluorophenyl)-4-(3,5-dimethoxyphenyl)-2,6-dimethylpyrimidine]													pest or weed control at 250 ppm (Zymoseptoria tritici; 250 ppm): 99%; pest or weed control at 250 ppm ([1]; 250 ppm): 100%; pest or weed control at 250 ppm ([2]; 250 ppm): 99%; pest or weed control at 250 ppm (Phakopsora pachyrhizi; 250 ppm): 95%; pest or weed control at 250 ppm (Botrytis cinerea; 250 ppm): 99%; pest or weed control at 250 ppm (Alternaria solani; 250 ppm): 98%
COc1cc(OC)cc(-c2nc(Cl)nc(C)c2-c2ccc(F)cc2Cl)c1 [Compound 47]													Test A disease control rating (Zymoseptoria tritici; 250 ppm): 100%; Test B disease control rating ([1]; 250 ppm): 100%; Test C disease control rating ([2]; 250 ppm): 98%; Test D disease control rating (Phakopsora pachyrhizi; 250 ppm): 98%; Test E disease control rating (Botrytis cinerea; 250 ppm): 93%; Test F disease control rating (Alternaria solani; 250 ppm): 92%
COc1cc(OC)c(Cl)c(-c2nc(Cl)nc(C)c2-c2c(F)cccc2F)c1 [Compound 48, 2-chloro-4-(2-chloro-3,5-dimethoxyphenyl)-5-(2,6-difluorophenyl)-6-methylpyrimidine]													pest or weed control at 250 ppm (Zymoseptoria tritici; 250 ppm): 100%; pest or weed control at 250 ppm ([1]; 250 ppm): 100%; pest or weed control at 250 ppm ([2]; 250 ppm): 100%; pest or weed control at 250 ppm (Phakopsora pachyrhizi; 250 ppm): 100%; pest or weed control at 250 ppm (Botrytis cinerea; 250 ppm): 99%; pest or weed control at 250 ppm (Alternaria solani; 250 ppm): 100%
COc1cc(OC)c(Cl)c(-c2nc(Cl)nc(C)c2-c2ccc(F)cc2Cl)c1 [Compound 49, 2-chloro-4-(2-chloro-3,5-dimethoxyphenyl)-5-(2-chloro-4-fluorophenyl)-6-methylpyrimidine]													pest or weed control at 250 ppm (Zymoseptoria tritici; 250 ppm): 100%; pest or weed control at 250 ppm ([1]; 250 ppm): 100%; pest or weed control at 250 ppm ([2]; 250 ppm): 100%; pest or weed control at 250 ppm (Phakopsora pachyrhizi; 250 ppm): 100%; pest or weed control at 250 ppm (Botrytis cinerea; 250 ppm): 96%; pest or weed control at 250 ppm (Alternaria solani; 250 ppm): 100%
COc1ccc(Cl)c(-c2nc(C)nc(C)c2-c2ccc(F)cc2Cl)c1 [Compound 50, 5-(2-chloro-4-fluorophenyl)-4-(2-chloro-5-methoxyphenyl)-2,6-dimethylpyrimidine]													pest or weed control at 250 ppm (Zymoseptoria tritici; 250 ppm): 100%; pest or weed control at 250 ppm ([1]; 250 ppm): 100%; pest or weed control at 250 ppm ([2]; 250 ppm): 100%; pest or weed control at 250 ppm (Phakopsora pachyrhizi; 250 ppm): 100%; pest or weed control at 250 ppm (Botrytis cinerea; 250 ppm): 99%; pest or weed control at 250 ppm (Alternaria solani; 250 ppm): 100%
COc1cc(OC)cc(-c2ncnc(OC)c2-c2c(F)cc(F)cc2F)c1 [Compound 51]	0	9	0	8	30	0							
COc1cc(OC)cc(-c2nc(C)nc(Cl)c2-c2ccc(F)cc2Cl)c1 [Compound 52]													Test A disease control rating (Zymoseptoria tritici; 250 ppm): 100%; Test B disease control rating ([1]; 250 ppm): 89%; Test C disease control rating ([2]; 250 ppm): 99%; Test D disease control rating (Phakopsora pachyrhizi; 250 ppm): 13%; Test E disease control rating (Botrytis cinerea; 250 ppm): 94%; Test F disease control rating (Alternaria solani; 250 ppm): 26%
COc1cc(OC)cc(-c2nc(C)nc(C)c2-c2c(F)cc(F)cc2F)c1 [Compound 53, 4-(3,5-dimethoxyphenyl)-2,6-dimethyl-5-(2,4,6-trifluorophenyl)pyrimidine]							100	100	100	97	96	97	
COc1cc(OC)c(Cl)c(-c2nc(C)nc(C)c2-c2c(F)cc(F)cc2F)c1 [Compound 54, 4-(2-chloro-3,5-dimethoxyphenyl)-2,6-dimethyl-5-(2,4,6-trifluorophenyl)pyrimidine]							100	100	100	100	97	99	
COc1cc(OC)c(Cl)c(-c2nc(C)nc(C)c2-c2c(F)cccc2F)c1 [Compound 55]	100	100	100	100	99	99							
CCc1nc(C)nc(-c2cc(OC)cc(OC)c2Cl)c1-c1ccc(F)cc1Cl [Compound 56, 4-(2-chloro-3,5-dimethoxyphenyl)-5-(2-chloro-4-fluorophenyl)-6-ethyl-2-methylpyrimidine]							100	100	100	88	94	91	
CCc1nc(C)nc(-c2cc(OC)cc(OC)c2Cl)c1-c1c(F)cccc1F [Compound 57, 4-(2-chloro-3,5-dimethoxyphenyl)-5-(2,6-difluorophenyl)-6-ethyl-2-methylpyrimidine]							100	100	100	73	96	97	
COc1cc(OC)cc(-c2nc(C)nc(OC)c2-c2ccc(F)cc2Cl)c1 [Compound 58]	24	0	21	0	79	0							
COc1cc(OC)c(Br)c(-c2nc(C)nc(C)c2-c2ccc(F)cc2Cl)c1 [Compound 59, 4-(2-bromo-3,5-dimethoxyphenyl)-2,6-dimethyl-5-(2-chloro-4-fluorophenyl)pyrimidine]							100	100	100	100	88	98	
COc1cc(OC)cc(-c2c(-c3c(F)cc(F)cc3F)noc(=O)c2C)c1 [Compound 60]	82	99	96	75	87	62							
COc1cc(OC)cc(-c2c(-c3ccc(F)cc3F)noc(=O)c2C)c1 [Compound 61]	63	55	0	0	83	0							
COc1cc(OC)c(Cl)c(-c2c(-c3ccc(F)cc3F)noc(=O)c2C)c1 [Compound 62]	100	99	76	87	97	0							
COc1cc(OC)c(Br)c(-c2c(-c3ccc(F)cc3F)noc(=O)c2C)c1 [Compound 63]	100	100	56	0	97	0							
COc1cc(-c2cc(C#N)c(=O)n(C)c2-c2c(F)cc(F)cc2F)cc(OC)c1Cl [Compound 71, 5-(4-chloro-3,5-dimethoxyphenyl)-1,2-dihydro-1-methyl-2-oxo-6-(2,4,6-trifluorophenyl)-3-pyridinecarbonitrile]							87	99	47	92	63	0	
